Results reported in paper PMC12257535, “Distinct Interactions of Cannabinol and Its Cytochrome P450-Generated Metabolites with Receptors and Sensory Neurons” (Journal of Medicinal Chemistry, 2025).

Tests used:
CYP3A4 = CYP3A4 (Homo sapiens, UniProt P08684, S18F); assay: NADPH oxidation assay with CYP3A4 nanodisc and CPR; details: triplicate
[1] = In vivo metabolism of CBN in female mice, plasma levels by targeted LC/MS/MS; parameters: species or system C57BL/6 mice; details: for CBN-11-OH formation relative to CBN-1′-OH / CBN-11-OH formation relative to CBN-quinone: 0.5 h, plasma
Experimental: Initially dissolved in ethanol, CBN was combined with a volume of Tween 80, constituting 6% of the total solution volume for injection. Ethanol was eliminated via vacuum evaporation, and saline was added to prepare a 4 mg/mL solution. CBN (20 mg/kg) or vehicle was administered to C57BL/6 mice intravenously (IV) through the retro-orbital sinus or intraperitoneally (IP) at the lower right quadrant of the abdomen. Animals were euthanized at 30- or 120 min postinjection. Blood samples, collected via cardiac puncture into heparin tubes, underwent cold centrifugation at 4500 rpm for 15 min to isolate plasma. Plasma and whole liver samples were flash-frozen at −80 °C for subsequent analysis. Our decision to use female mice for this experiment was based on the availability of age-matched mice in the colony at the time of the experiment.
Mice were anaesthetized with a 3% inhalant dose of isoflurane until their respiratory rate decreased to 50% of baseline (i.e., 40–60 breaths/min) and the righting reflex was abolished. Mice were subsequently removed from the induction chamber and laid on their side. Using the index finger and thumb of the nondominant hand, the skin above and below the eye was retracted until a slight protrusion from the socket was noted. A 29G1/2 needle was inserted, bevel down, into the medial canthus at an approximate 45-degree angle until slight resistance was noted. Volume was slowly infused at a rate of 15uL/second. The needle was subsequently removed from the eye socket, and ophthalmic ointment was added.
Animals were gently restrained by scruff, and the injection site at the lower right quadrant of the abdomen was identified. The needle was inserted at a 60-degree angle to the body, and the plunger was lightly withdrawn to ensure the needle was not in contact with viscera or organs before dispensing volume.
200 μL plasma samples were collected and used for extraction using 1 mL of Hexane: Ethyl acetate (8:2 v/v) following a similar protocol described above.
Samples were analyzed using the Sciex QTrap 6500+ system (Framingham, MA) with Waters Acquity I- class plus UPLC. Software Analyst 1.7.1 was used for data acquisition.
The LC separation was performed on a Waters Acquity UPLC BEH column (2.1 × 100 mm, 1.7 μm) with mobile phase A (0.1% formic acid in water) and mobile phase B (0.1% formic acid in acetonitrile). The flow rate was 0.5 mL/min unless noted otherwise. The linear gradient was as follows: 0–0.5 min, 70%A; 2 min, 20%A; 4–4.2 min, 0%A; 4.21–5.2 min, 0%A (0.8 mL/min); 5.3–6.9 min, 70%A. The autosampler was set at 10 °C, and the column was kept at 50 °C. The injection volume was 5 μL.
Mass spectra were acquired under positive electrospray ionization (ESI) with the ion spray voltage of 4500 V. The source temperature was 500 °C. The curtain gas, ion source gas 1, and ion source gas 2 were 32, 50, and 70 psi, respectively. Multiple reaction monitoring (MRM) was used for quantitation with the MRM transition of CBN (m/z 311.2 → m/z 269.1), CBN-1′–OH (m/z 327.2 → m/z 253.1), CBN-11-OH (m/z 327.2 → m/z 128.1), CBN-p-quinone (m/z 325.2 → m/z 283.1) and EPEA-d4 as internal standard (m/z 350.3 → m/z 66.1).

IL-6 = IL-6 ELISA in LPS-stimulated BV2 microglial cells; type: cell-based
Experimental: (§1) The BV2 microglial cells were subjected to the treatment of LPS both in the absence and presence of CBN and its selected metabolites. The seeding density for this assay was 1 × 10^5 cells/well. The cells were initially treated with the molecules for 4 h before being stimulated with LPS (25 ng/mL). The NO assay was performed 24 h after the treatment with LPS. The NO assay was performed according to the manufacturer’s protocol, and NO levels were quantified using nitrate standard curves. For the assay, 50 μL of cell media was used in a 96-well plate, and the absorbance was recorded at 540 nm. All measurements were performed in n = 5.
(§2) ELISA assays of IL-6, IL-10 (Item No. 88–7105), and Arginase 1 were performed using the same supernatant with which we had completed the NO and LDH assays. The culture media was collected, and the IL-6 (Thermo Scientific) and Arginase 1 (abcam) assays were performed using the specific monoclonal antibodies as per the manufacturer’s instructions.

human liver microsomes = assay: CBN metabolism by human liver microsomes, metabolite formation rate; type: in vitro ADME; details: HLM, across different CBN concentrations
Experimental: We carried out concentration-dependent metabolism of CBN in the presence of 2 CYPs: 2C9 and 2D6. For the experiment, we used an enzyme concentration of 0.5 μM, reconstituted in the lipid system of POPC: POPS (8:2 v/v), and CPR at 0.6 μM dissolved in 0.1 M potassium phosphate buffer for CYP2C9. The substrate CBN was used in a range of 5–80 μM. The reaction mixture was incubated at 37 °C for 10 min, and then NADPH was added (1 mM), allowing the reaction to proceed for an additional 30 min. We quenched the reactions using a mixture of Hexane: Ethyl Acetate (8:2 v/v) and used the same composition to extract the CBN metabolites. We did a total extraction for three cycles. Following the extractions, the extractions were dried under a continuous stream of nitrogen, and the residual products were finally dissolved in 90% ethanol. We used CYP2D6 in a nanodisc for the metabolism of CBN. […] We carried out the same protocol for the metabolism of CBN using 1 μg of human liver microsome, CPR (0.6 μM) and NADPH (1 mM).
Samples were analyzed with the Sciex QTrap 6500+ system (Framingham, MA) with Waters Acquity I-class plus UPLC. Software Analyst 1.7.1 was used for data acquisition.
The LC separation was performed on a Waters Acquity UPLC BEH column (2.1 × 100 mm, […]) with mobile phase A (0.1% formic acid in water) and mobile phase B (0.1% formic acid in acetonitrile). The flow rate was 0.5 mL/min unless noted otherwise. […]
(§3) Mass spectra were acquired under positive electrospray ionization (ESI) with the ion spray voltage of 4500 V. The source temperature was 500 °C. […] Multiple reaction monitoring (MRM) was used for quantitation, as described in transitions CBN (m/z 311.2 → m/z 205.1), CBN-1′–OH (m/z 327.2 → m/z 253.1), CBN-11-OH (m/z 327.2 → m/z 291.1), CBN-p-quinone (m/z 325.2 → m/z 283.1) and CBC-d9 as internal standard (m/z 324.2→ m/z 202.1).
(§4) All data were analyzed using the software Skyline (daily version 22.2.1.278). […]

Arginase 1 = Arginase 1 ELISA in LPS-stimulated BV2 microglial cells; type: cell-based
Experimental: as §1, §2

CB1 receptor [2] = molecular target: T1, CB1 receptor (Homo sapiens, UniProt P21554); assay: G protein nanoBRET assay, agonist mode, CB1 receptor; details: 10 μM, ΔBRET; confirmed by concentration–response, only at high concentrations
T1 sequence (P21554 whole entry): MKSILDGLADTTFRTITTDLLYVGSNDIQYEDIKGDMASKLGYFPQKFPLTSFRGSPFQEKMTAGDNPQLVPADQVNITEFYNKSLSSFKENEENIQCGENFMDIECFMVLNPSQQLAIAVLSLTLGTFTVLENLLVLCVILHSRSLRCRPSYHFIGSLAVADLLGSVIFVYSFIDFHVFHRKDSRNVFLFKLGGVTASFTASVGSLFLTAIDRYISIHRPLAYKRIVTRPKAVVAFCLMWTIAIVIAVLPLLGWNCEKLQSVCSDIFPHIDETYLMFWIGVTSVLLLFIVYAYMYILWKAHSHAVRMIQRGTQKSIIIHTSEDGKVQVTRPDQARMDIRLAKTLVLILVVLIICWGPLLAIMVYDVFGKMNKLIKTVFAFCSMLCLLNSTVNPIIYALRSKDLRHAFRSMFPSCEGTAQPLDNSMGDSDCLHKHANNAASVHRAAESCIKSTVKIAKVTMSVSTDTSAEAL

CYP2D6 = molecular target: T2, CYP2D6 (Homo sapiens, UniProt P10635); assay: CYP2D6 (nanodisc)-mediated CBN metabolism, kinetics of metabolite formation; type: in vitro ADME
T2 construct: polyhistidine (inferred from Ni-NTA purification and histidine elution); made in house; host or cells: E. coli (inferred from the pCWori vector and lysozyme/spheroplast preparation)
T2 sequence (P10635 with tags, fused parts or gaps limits assumed): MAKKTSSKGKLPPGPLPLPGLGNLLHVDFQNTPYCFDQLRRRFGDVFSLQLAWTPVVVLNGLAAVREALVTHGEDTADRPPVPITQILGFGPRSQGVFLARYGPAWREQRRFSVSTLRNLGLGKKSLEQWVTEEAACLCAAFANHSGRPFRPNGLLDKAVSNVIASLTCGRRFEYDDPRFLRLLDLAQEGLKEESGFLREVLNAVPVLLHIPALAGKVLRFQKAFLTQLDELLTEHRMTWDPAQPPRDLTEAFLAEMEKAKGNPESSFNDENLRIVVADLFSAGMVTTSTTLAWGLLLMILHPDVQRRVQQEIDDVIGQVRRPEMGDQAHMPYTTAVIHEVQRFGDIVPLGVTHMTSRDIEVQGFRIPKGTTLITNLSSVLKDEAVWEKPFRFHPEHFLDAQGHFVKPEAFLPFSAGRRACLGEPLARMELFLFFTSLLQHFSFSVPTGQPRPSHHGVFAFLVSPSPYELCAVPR
Experimental: We carried out concentration-dependent metabolism of CBN in the presence of 2 CYPs: 2C9 and 2D6. For the experiment, we used an enzyme concentration of 0.5 μM, reconstituted in the lipid system of POPC: POPS (8:2 v/v), and CPR at 0.6 μM dissolved in 0.1 M potassium phosphate buffer for CYP2C9. The substrate CBN was used in a range of 5–80 μM. The reaction mixture was incubated at 37 °C for 10 min, and then NADPH was added (1 mM), allowing the reaction to proceed for an additional 30 min. We quenched the reactions using a mixture of Hexane: Ethyl Acetate (8:2 v/v) and used the same composition to extract the CBN metabolites. We did a total extraction for three cycles. […]
Samples were analyzed with the Sciex QTrap 6500+ system (Framingham, MA) with Waters Acquity I-class plus UPLC. […]
as §3, §4

CB2 receptor = CB2 receptor (Homo sapiens, UniProt P34972); assay: G protein nanoBRET assay, antagonist mode, CB2 receptor; details: 50 μM after pretreatment with 1 μM CP-55940
CB2 receptor, sequence (P34972 whole entry): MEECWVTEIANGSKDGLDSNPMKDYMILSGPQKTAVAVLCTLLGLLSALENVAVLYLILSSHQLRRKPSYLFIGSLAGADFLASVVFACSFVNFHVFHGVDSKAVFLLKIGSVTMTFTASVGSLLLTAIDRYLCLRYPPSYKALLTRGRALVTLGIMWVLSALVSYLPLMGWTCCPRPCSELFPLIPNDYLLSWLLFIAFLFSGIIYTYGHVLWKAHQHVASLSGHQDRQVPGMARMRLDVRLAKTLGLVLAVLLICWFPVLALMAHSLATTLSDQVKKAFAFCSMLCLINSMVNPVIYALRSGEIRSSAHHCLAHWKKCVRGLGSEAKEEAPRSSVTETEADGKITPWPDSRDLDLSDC

IL-10 = IL-10 ELISA in LPS-stimulated BV2 microglial cells; type: cell-based; details: LPS-stimulated BV2, 1–5 μM
Experimental: as §1, §2

NO = NO levels in LPS-stimulated BV2 microglial cells; type: cell-based; details: for change in NO levels compared to cells with only LPS treatment: LPS-stimulated BV2, 1, 2.5 and 5 μM
Experimental: as §1

CB1 receptor [3] = molecular target: T1, CB1 receptor; assay: G protein nanoBRET assay, antagonist mode, CB1 receptor; details: 50 μM after pretreatment with 1 μM CP-55940
DRG neurons = assay: Calcium responses of cultured DRG sensory neurons; type: cell-based; details: cultured mouse DRG neurons, 50 μM × 15 s
Experimental: 9 CBN and 11-OH CBN activate DRG neurons with similar response magnitudes but differ in their percentage of neurons activated and time to peak response. Calcium response traces of representative cultured mouse DRG neurons following application of CBN (A) and 11-OH CBN (B) 50 μM × 15 s (arrow). […] Mean value ± SEM (CBN: n = 59; 11-OH CBN: n = 29, two-tailed t test, Prism GraphPad).

not read [4] = substrate: CCCCCC1=CC(=O)C2=C(OC(C)(C)c3ccc(C)cc32)C1=O; assay: not read; details: other: CYP2C9, CBN 5–80 μM
Experimental: (§5) For the experiment, we used an enzyme concentration of 0.5 μM, reconstituted in the lipid system of POPC: POPS (8:2 v/v), and CPR at 0.6 μM dissolved in 0.1 M potassium phosphate buffer for CYP2C9. […] The reaction mixture was incubated at 37 °C for 10 min, and then NADPH was added (1 mM), allowing the reaction to proceed for an additional 30 min. […] We did a total extraction for three cycles. Following the extractions, the extractions were dried under a continuous stream of nitrogen, and the residual products were finally dissolved in 90% ethanol.
(§6) The LC separation was performed on a Waters Acquity UPLC BEH column (2.1 × 100 mm, 1.7 μM) with mobile phase A (0.1% formic acid in water) and mobile phase B (0.1% formic acid in acetonitrile). The flow rate was 0.5 mL/min unless noted otherwise. The linear gradient was as follows: 0–0.5 min, 70%A; 2 min, 20%A; 4–4.2 min, 0%A; 4.21–5.2 min, 0%A (0.8 mL/min); 5.3–6.9 min, 70%A. The autosampler was set at 10 °C, and the column was kept at 50 °C. The injection volume was 5 μL.
(§7) All data were analyzed using the software Skyline (daily version 22.2.1.278). It includes raw data import, peak integration, and a linear regression fit with 1/×2 weighting for the calibration curves.

not read [5] = substrate: CCCC[C@H](O)c1cc(O)c2c(c1)OC(C)(C)c1ccc(C)cc1-2; assay: not read; details: other: CYP2C9, CBN 5–80 μM
Experimental: as §5, §6, §7

CYP3A4, sequence (P08684 with tags, fused parts or gaps S18F limits assumed): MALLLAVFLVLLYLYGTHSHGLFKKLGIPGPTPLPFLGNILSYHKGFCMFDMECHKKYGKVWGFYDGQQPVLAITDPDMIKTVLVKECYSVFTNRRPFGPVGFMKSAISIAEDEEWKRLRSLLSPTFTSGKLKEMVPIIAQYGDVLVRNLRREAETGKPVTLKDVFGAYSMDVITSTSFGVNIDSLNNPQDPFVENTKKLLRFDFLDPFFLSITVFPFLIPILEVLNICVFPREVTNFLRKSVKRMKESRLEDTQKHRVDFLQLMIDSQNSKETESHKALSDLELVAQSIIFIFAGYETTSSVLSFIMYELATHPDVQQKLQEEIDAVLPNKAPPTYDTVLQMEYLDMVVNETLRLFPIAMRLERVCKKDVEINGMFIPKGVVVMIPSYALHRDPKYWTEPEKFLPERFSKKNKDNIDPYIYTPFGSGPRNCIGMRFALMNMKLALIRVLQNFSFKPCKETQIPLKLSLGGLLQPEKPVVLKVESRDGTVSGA

CC(C)C[C@H]1C(=O)N2CCC[C@H]2[C@]2(O)O[C@](NC(=O)[C@@H]3C=C4c5cccc6[nH]c(Br)c(c56)C[C@H]4N(C)C3)(C(C)C)C(=O)N12 [Bromocriptine, reference compound]
rate of NADPH oxidation in the presence of the compound (CYP3A4): 60.788±19.569 nmol/min/nmol

CCCC[C@H](O)c1cc(O)c2c(c1)OC(C)(C)c1ccc(C)cc1-2 [CBN-1′–OH, 3-(1-hydroxypentyl)-6,6,9-trimethyl-6H-benzo[c]chromen-1-ol]
reduction of plasma level between 0.5 and 2 h ([1]; IV administration of CBN): 3 fold
IL-6 production (IL-6; LPS-stimulated BV2, concentration not stated): decrease in IL-6 production
rate of metabolite formation from CBN (human liver microsomes): 9–9.4 × 10^3 pmol/min/nmol
Arginase1 levels (Arginase 1): slight increase in Arginase1 levels
agonist effect at CB1 receptor, Gαo activation (CB1 receptor [2]): partial agonist effect
formation of metabolite by CYP2D6 (CYP2D6): did not detect the formation
inhibition of CB2 receptor (CB2 receptor): inverse agonist effect
IL-10 levels (IL-10): reversed
change in NO levels compared to cells with only LPS treatment (NO): no detectable significant (ns) change

CCCCCc1cc(O)c2c(c1)OC(C)(C)c1ccc(CO)cc1-2 [CBN-11-OH, cannabinol-11-hydroxy]
reduction of plasma level between 0.5 and 2 h ([1]; IP administration of CBN): 2 fold
reduction of plasma level between 0.5 and 2 h ([1]; IV administration of CBN): 3 fold
CBN-11-OH formation relative to CBN-1′-OH ([1]; IV): ~89 times
CBN-11-OH formation relative to CBN-quinone ([1]; IV): ~55 times
CBN-11-OH formation relative to CBN-1′-OH ([1]; i.p.): ~82 fold
CBN-11-OH formation relative to CBN-quinone ([1]; i.p.): ~90 fold
IL-6 levels (IL-6; LPS-stimulated BV2, 5 μM): reduction in IL-6 levels
inhibition of CB1 activation (CB1 receptor [3]): complete ablation of the BRET signal
rate of metabolite formation from CBN (human liver microsomes): ≤ 3.4 × 10^4 pmol/min/nmol
Arginase1 levels (Arginase 1): mixed results
inhibition of CB2 receptor (CB2 receptor): complete inhibition
IL-10 levels (IL-10): concentration-dependent increase in IL-10 levels
Ca2+ response (%) (DRG neurons): 31.6 ± 2.8%
DRG neuron activation (%) (DRG neurons): 5.4 ± 1.1%
Response Time (DRG neurons): 22.8 ± 2.2 s
[Ca2+]i responses, peak values (DRG neurons): 31.6 ± 2.8%
percentage of DRG neurons activated (DRG neurons): 5.4 ± 1.1%
time to peak response (DRG neurons): 22.8 ± 2.2 s
production of NO (NO; LPS-stimulated BV2, 5 μM): slightly lower production of NO
change in NO levels compared to cells with only LPS treatment (NO): no detectable significant (ns) change

CCCCCC1=CC(=O)C2=C(OC(C)(C)c3ccc(C)cc32)C1=O [CBN-quinone, 6,6,9-Trimethyl-3-pentyl-1H-benzo[c]chromene-1,4(6H)-dione]
reduction of plasma level between 0.5 and 2 h ([1]; IV administration of CBN): 9 fold
rate of metabolite formation from CBN (human liver microsomes): further down by approximately three times the value of CBN-1′–OH
Vmax of metabolite formation from CBN (CYP2D6; CBN 5–80 μM): 5.6 pmol/min/nmol
inhibition of CB2 receptor (CB2 receptor): partial inhibition

B1: CYP2C9 (Homo sapiens) (protein)
chain: MDSLVVLVLCLSCLLLLSLWRQSSGRGKLPPGPTPLPVIGNILQIGIKDISKSLTNLSKVYGPVFTLYFGLKPIVVLHGYEAVKEALIDLGEEFSGRGIFPLAERANRGFGIVFSNGKKWKEIRRFSLMTLRNFGMGKRSIEDRVQEEARCLVEELRKTKASPCDPTFILGCAPCNVICSIIFHKRFDYKDQQFLNLMEKLNENIKILSSPWIQICNNFSPIIDYFPGTHNKLLKNVAFMKSYILEKVKEHQESMDMNNPQDFIDCFLMKMEKEKHNQPSEFTIESLENTAVDLFGAGTETTSTTLRYALLLLLKHPEVTAKVQEEIERVIGRNRSPCMQDRSHMPYTDAVVHEVQRYIDLLPTSLPHAVTCDIKFRNYLIPKGTTILISLTSVLHDNKEFPNPEMFDPHHFLDEGGNFKKSKYFMPFSAGKRICVGEALAGMELFLFLTSILQNFNLKSLVDPKNLDTTPVVNGFASVPPFYQLCFIPV
Km (not read [4]): 2.5 µM
kcat (not read [4]): 4.4 pmol/min/nmol
Km (not read [5]): 2.3 µM
kcat (not read [5]): 12.1 pmol/min/nmol
